The first experiment has as its system COX-1/2 (mixed COX-1 and COX-2). Briefly: inhibition of mixed COX-1 and COX-2. Format: biochemical. The note with it: summary.
On to `CCCCCCOc1ccc(-c2nn(-c3ccc(Cl)cc3)cc2/C=C2/SC(=O)N(CC(=O)O)C2=O)cc1` [14f], for which the “inhibition against COX-1/2 in words” value is “without significant inhibition”.

The next experiment addresses T1, human mPGES-1 (Homo sapiens, UniProt O14684).
T1 sequence (O14684 1-152): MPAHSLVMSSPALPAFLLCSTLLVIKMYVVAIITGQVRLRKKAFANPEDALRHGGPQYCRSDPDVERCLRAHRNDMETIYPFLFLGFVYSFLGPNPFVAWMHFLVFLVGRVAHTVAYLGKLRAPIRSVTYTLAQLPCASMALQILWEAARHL
Nature of the experiment: in vitro inhibition of human mPGES-1. Type of experiment: biochemical. The note with it: Table 2.
Consider `CCOc1ccc(-c2nn(-c3ccc(Cl)cc3)cc2/C=C(\C#N)C(=O)O)cc1` [13a], for which the “activity against human mPGES-1 in words” value was “submicromolar potency”. The same measure, in the same setting: to `CCOc1ccc(-c2nn(-c3ccc(Cl)cc3)cc2C=C(C#N)C#N)cc1` [13b] belongs “not very active”; to `CCOc1ccc(-c2nn(-c3ccc(Cl)cc3)cc2/C=C(\C#N)C(N)=O)cc1` [13c], “not very active”; to `CCCCCCOc1ccc(-c2nn(-c3ccc(Cl)cc3)cc2/C=C(\C#N)C(=O)O)cc1` [14a], “submicromolar potency”.

On to `CCCCCCOc1ccc(-c2nn(-c3ccc(Cl)cc3)cc2C=C(C#N)C#N)cc1` [14b], for which the “activity against human mPGES-1 in words” value is reported as “not very active”. Still for that read-out and setting: to `CCCCCCOc1ccc(-c2nn(-c3ccc(Cl)cc3)cc2/C=C(\C#N)C(N)=O)cc1` [14c] belongs “not very active”.

Source of the values: article PMC5836806 (Bioorganic & medicinal chemistry letters, 2018).
